# Like-named read-outs stand apart in the source and are kept apart here.
# Tests used:
# CB2 receptor = molecular target: T1, CB2 receptor (Homo sapiens, UniProt P34972); assay: Binding assay for CB2 agonists or inverse agonists (SK-N-MC membranes, [3H]-CP-55,940); settings: for CB2 receptor binding percent inhibition: test concentration not stated
# T1 construct: expressed in transfected cells
# Protocol: (§1) The human CB1 and CB2 receptors were stably expressed in SK-N-MC cells transfected with pcDNA3 CB-1 (human) or pcDNA3 CB-2 (human). The cells were grown in T-180 cell culture flasks under standard cell culture conditions at 37° C. in a 5% CO2 atmosphere. The cells were harvested by trysinization and homogenized in a homogenization buffer (10 mM Tris, 0.2 mM MgCl2, 5 mM KCl, with protease inhibitors aprotinin, leupeptin, pepstatin A and bacitracin) and centrifuged (2000 g). The supernatant was then centrifuged in 2M sucrose (31,300 g) to produce a semi-purified membrane pellet. The pellet was resuspended in homogenization and stored at −80° C.
# On the day of the assay, the pellet was thawed on ice and diluted in assay buffer (50 mM Tris-HCl, 5 mM MgCl2, 2.5 mM EDTA, 0.5 mg/mL fatty acid free bovine serum aldumin, pH 7.5). […] The plate was covered and incubated for 90 minutes at 30° C. The contents were then aspirated onto a Packard Unifilter GF/C filter bottom plate prewet with 0.5% polyethyleneimine. The wells of the polypropylene plate were rinsed and aspirated seven times with a 0.9% saline-0.5% Tween 20 solution. The Unifilter plate was dried, a scintillation cocktail was added to each well and the counts representing binding were quantitated in a TopCount scintillation counter.
# (§2) For compounds tested, an IC50 binding value was obtained from percent inhibition studies in which various test concentrations were used. The binding value was calculated by linear regression.
# CB1 receptor = molecular target: T2, CB1 receptor (Homo sapiens, UniProt P21554); assay: Binding assay for CB1 agonists or inverse agonists (SK-N-MC membranes, [3H]-CP-55,940); settings: for inhibition at 0.5 µM: read-out: CB1 receptor binding percent inhibition, test concentration 0.5 μM (footnote 10); for inhibition at 1 µM: read-out: CB1 receptor binding percent inhibition, test concentration 1 μM (footnote 1)
# T2 construct: expressed in transfected cells
# T2 sequence (P21554 whole entry): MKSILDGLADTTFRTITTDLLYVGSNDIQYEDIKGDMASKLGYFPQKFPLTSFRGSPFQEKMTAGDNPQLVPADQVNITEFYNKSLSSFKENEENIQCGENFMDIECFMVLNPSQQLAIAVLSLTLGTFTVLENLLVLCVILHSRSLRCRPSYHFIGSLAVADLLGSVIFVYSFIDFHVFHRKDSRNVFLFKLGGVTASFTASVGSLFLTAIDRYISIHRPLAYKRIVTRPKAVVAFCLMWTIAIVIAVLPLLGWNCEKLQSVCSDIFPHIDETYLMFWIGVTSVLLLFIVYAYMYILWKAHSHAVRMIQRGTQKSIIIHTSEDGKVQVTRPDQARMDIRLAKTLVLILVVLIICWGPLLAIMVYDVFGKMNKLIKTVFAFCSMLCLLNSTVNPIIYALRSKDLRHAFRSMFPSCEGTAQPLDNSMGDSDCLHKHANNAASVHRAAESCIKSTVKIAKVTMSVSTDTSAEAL
# Protocol: as §1
# On the day of the assay, the pellet was thawed on ice and diluted in assay buffer (50 mM Tris-HCl, 5 mM MgCl2, 2.5 mM EDTA, 0.5 mg/mL fatty acid free bovine serum aldumin, pH 7.5). The diluted membrane pellet was added with buffer, either a test compound or vehicle standard and the radioligand […] ([…]) to the wells of a 96-well polypropylene plate. Non-specific binding was measured in wells containing WIN 55,212 (10 uM). The plate was covered and incubated for 90 minutes at 30° C. The contents were then aspirated onto a Packard Unifilter GF/C filter bottom plate prewet with 0.5% polyethyleneimine. The wells of the polypropylene plate were rinsed and aspirated seven times with a 0.9% saline-0.5% Tween 20 solution. The Unifilter plate was dried, a scintillation cocktail was added to each well and the counts representing binding were quantitated in a TopCount scintillation counter.
# as §2
# [1] = Cannabinoid CB1 Receptor Binding IC50, calculated by linear regression from percent inhibition at various test concentrations
# T1 sequence (P34972 whole entry): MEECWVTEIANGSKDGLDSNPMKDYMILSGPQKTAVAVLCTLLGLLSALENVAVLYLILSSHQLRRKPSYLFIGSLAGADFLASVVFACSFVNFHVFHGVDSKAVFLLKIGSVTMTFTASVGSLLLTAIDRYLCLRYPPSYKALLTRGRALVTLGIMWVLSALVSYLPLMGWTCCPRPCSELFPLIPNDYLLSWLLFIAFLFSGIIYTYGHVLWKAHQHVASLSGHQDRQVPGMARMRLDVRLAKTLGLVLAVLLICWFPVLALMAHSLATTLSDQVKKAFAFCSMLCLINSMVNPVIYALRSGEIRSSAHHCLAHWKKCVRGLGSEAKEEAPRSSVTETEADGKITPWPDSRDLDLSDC
SMILES,CB2 receptor binding percent inhibition (CB2 receptor) [%],inhibition at 1 µM (CB1 receptor) [%],further results
"O=C(N[C@@H]1c2ccccc2C[C@@H]1O)c1nn(C2CCCCC2)c2c1CCCCC2Cc1ccc(F)cc1 (relative stereo) [Cpd 121, (8S*)-1-cyclohexyl-8-(4-fluoro-benzyl)-1,4,5,6,7,8-hexahydro-cycloheptapyrazole-3-carboxylic acid [(1R,2S)-2-hydroxy-indan-1-yl]-amide]",95,80,IC50 (CB1 receptor; [1]): 400 nM; inhibition at 0.5 µM (CB1 receptor): 70%
"O=C(N[C@@H]1c2ccccc2C[C@@H]1O)c1nn(C2CCCCC2)c2c1CCCCC2Cc1cccc(F)c1 (single isomer, unassigned) [Cpd 115, (8S*)-1-cyclohexyl-8-(3-fluoro-benzyl)-1,4,5,6,7,8-hexahydro-cycloheptapyrazole-3-carboxylic acid [(1R,2S)-2-hydroxy-indan-1-yl]-amide]",99,–,"IC50 (CB1 receptor; [1]): 500 nM; inhibition at 0.5 µM (CB1 receptor): 67%; CB1 receptor binding percent inhibition (CB1 receptor; test concentration 1 μM (footnote 1), 1 µM): 79%"
"O=C(N[C@@H](CO)c1ccccc1)c1nn(C2CCCCC2)c2c1CCCCC2Cc1ccc(F)cc1 (stereo in doubt) [Cpd 67, (8S*)-1-cyclohexyl-8-(4-fluoro-benzyl)-1,4,5,6,7,8-hexahydro-cycloheptapyrazole-3-carboxylic acid [(1R)-2-hydroxy-1-phenyl-ethyl]-amide]",55,44,–
"Cc1ccc(CC2CCCCc3c(C(=O)NC4C5(C)CCC(C5)C4(C)C)nn(-c4ccc(F)cc4)c32)cc1 (stereo not shown) [Cpd 1, 1-(4-fluoro-phenyl)-8-(4-methyl-benzyl)-1,4,5,6,7,8-hexahydro-cycloheptapyrazole-3-carboxylic acid (1,3,3-trimethyl-bicyclo[2.2.1]hept-2-yl)-amide]",–,–,"IC50 (CB2 receptor; Cannabinoid CB2 Receptor Binding IC50, calculated by linear regression from percent inhibition at various test concentrations): 300 nM; IC50 (CB1 receptor; [1]): 200 nM"
"CC12CCC(C1)C(C)(C)[C@H]2NC(=O)c1nn(C2CCCCC2)c2c1CCCCC2Cc1ccc(Cl)cc1 (stereo partly drawn) [Cpd 2, 8-(4-chloro-benzyl)-1-cyclohexyl-1,4,5,6,7,8-hexahydro-cycloheptapyrazole-3-carboxylic acid [(2S)-1,3,3-trimethyl-bicyclo[2.2.1]hept-2-yl]-amide]",53,21,–
"CC12CCC(C1)C(C)(C)[C@H]2NC(=O)c1nn(C2CCCCC2)c2c1CCCCC2Cc1cccc(Cl)c1 (stereo partly drawn) [Cpd 4, 8-(3-chloro-benzyl)-1-cyclohexyl-1,4,5,6,7,8-hexahydro-cycloheptapyrazole-3-carboxylic acid [(2S)-1,3,3-trimethyl-bicyclo[2.2.1]hept-2-yl]-amide]",36,51,–
"C[C@H](NC(=O)c1nn(C2CCCCC2)c2c1CCCCC2Cc1ccc(Cl)cc1)c1ccccc1 (stereo partly drawn) [Cpd 5, 8-(4-chloro-benzyl)-1-cyclohexyl-1,4,5,6,7,8-hexahydro-cycloheptapyrazole-3-carboxylic acid [(1S)-1-phenyl-ethyl]-amide]",34,22,–
"C[C@@H](NC(=O)c1nn(C2CCCCC2)c2c1CCCCC2Cc1ccc(Cl)cc1)c1ccccc1 (stereo partly drawn) [Cpd 6, 8-(4-chloro-benzyl)-1-cyclohexyl-1,4,5,6,7,8-hexahydro-cycloheptapyrazole-3-carboxylic acid [(1R)-1-phenyl-ethyl]-amide]",4,26,–
"C[C@H](NC(=O)c1nn(C2CCCCC2)c2c1CCCCC2Cc1cccc(Cl)c1)c1ccccc1 (stereo partly drawn) [Cpd 7, 8-(3-chloro-benzyl)-1-cyclohexyl-1,4,5,6,7,8-hexahydro-cycloheptapyrazole-3-carboxylic acid [(1S)-1-phenyl-ethyl]-amide]",12,68,"IC50 (CB1 receptor; calculated by linear regression from percent inhibition at various test concentrations, read-out: Cannabinoid CB1 Receptor Binding IC50): 1100 nM"
"O=C(NC12CC3CC(CC1C3)C2)c1nn(C2CCCCC2)c2c1CCCCC2Cc1cccc(Cl)c1 (stereo not shown) [Cpd 9, 8-(3-chloro-benzyl)-1-cyclohexyl-1,4,5,6,7,8-hexahydro-cycloheptapyrazole-3-carboxylic acid (hexahydro-2,5-methano-pentalen-3a-yl)-amide]",4,18,–
"CC(NC(=O)c1nn(C2CCCCC2)c2c1CCCCC2Cc1cccc(Cl)c1)C12CC3CC(CC(C3)C1)C2 (stereo not shown) [Cpd 10, 8-(3-chloro-benzyl)-1-cyclohexyl-1,4,5,6,7,8-hexahydro-cycloheptapyrazole-3-carboxylic acid (1-adamantan-1-yl-ethyl)-amide]",8,0,–
"CC12CCC(C1)C(C)(C)[C@H]2NC(=O)c1nn(C2CCCCC2)c2c1CCCCC2Cc1ccccc1Cl (stereo partly drawn) [Cpd 11, 8-(2-chloro-benzyl)-1-cyclohexyl-1,4,5,6,7,8-hexahydro-cycloheptapyrazole-3-carboxylic acid [(2S)-1,3,3-trimethyl-bicyclo[2.2.1]hept-2-yl]-amide]",21,17,–
"O=C(NC1C2CC3CC(C2)CC1C3)c1nn(C2CCCCC2)c2c1CCCCC2Cc1cccc(Cl)c1 (stereo not shown) [Cpd 12, 8-(3-chloro-benzyl)-1-cyclohexyl-1,4,5,6,7,8-hexahydro-cycloheptapyrazole-3-carboxylic acid adamantan-2-ylamide]",31,36,–
"O=C(NC1C2CC3CC(C2)CC1C3)c1nn(C2CCCCC2)c2c1CCCCC2Cc1ccccc1Cl (stereo not shown) [Cpd 13, 8-(2-chloro-benzyl)-1-cyclohexyl-1,4,5,6,7,8-hexahydro-cycloheptapyrazole-3-carboxylic acid adamantan-2-ylamide]",14,0,–
"CC12CCC(C1)C(C)(C)[C@H]2NC(=O)c1nn(-c2ccc(Cl)cc2Cl)c2c1CCCCC2Cc1ccc(Cl)cc1 (stereo partly drawn) [Cpd 14, 8-(4-chloro-benzyl)-1-(2,4-dichloro-phenyl)-1,4,5,6,7,8-hexahydro-cycloheptapyrazole-3-carboxylic acid [(2S)-1,3,3-trimethyl-bicyclo[2.2.1]hept-2-yl]-amide]",7,29,–
"CC12CCC(C1)C(C)(C)[C@H]2NC(=O)c1nn(-c2ccc(Cl)cc2Cl)c2c1CCCCC2Cc1cccc(Cl)c1 (stereo partly drawn) [Cpd 15, 8-(3-chloro-benzyl)-1-(2,4-dichloro-phenyl)-1,4,5,6,7,8-hexahydro-cycloheptapyrazole-3-carboxylic acid [(2S)-1,3,3-trimethyl-bicyclo[2.2.1]hept-2-yl]-amide]",54,58,–
"O=C(NC1C2CC3CC(C2)CC1C3)c1nn(C2CCCCC2)c2c1CCCCC2Cc1ccc(Cl)cc1 (stereo not shown) [Cpd 16, 8-(4-chloro-benzyl)-1-cyclohexyl-1,4,5,6,7,8-hexahydro-cycloheptapyrazole-3-carboxylic acid adamantan-2-ylamide]",68,21,–
"O=C(NC1C2CC3CC(C2)CC1C3)c1nn(-c2ccc(Cl)cc2Cl)c2c1CCCCC2Cc1cccc(Cl)c1 (stereo not shown) [Cpd 17, 8-(3-chloro-benzyl)-1-(2,4-dichloro-phenyl)-1,4,5,6,7,8-hexahydro-cycloheptapyrazole-3-carboxylic acid adamantan-2-ylamide]",11,37,–
"O=C(NC1C2CC3CC(C2)CC1C3)c1nn(-c2ccc(Cl)cc2Cl)c2c1CCCCC2Cc1ccc(Cl)cc1 (stereo not shown) [Cpd 18, 8-(4-chloro-benzyl)-1-(2,4-dichloro-phenyl)-1,4,5,6,7,8-hexahydro-cycloheptapyrazole-3-carboxylic acid adamantan-2-ylamide]",23,3,–
"O=C(NC12CC3CC(CC(C3)C1)C2)c1nn(C2CCCCC2)c2c1CCCCC2Cc1cccc(Cl)c1 (stereo not shown) [Cpd 19, 8-(3-chloro-benzyl)-1-cyclohexyl-1,4,5,6,7,8-hexahydro-cycloheptapyrazole-3-carboxylic acid adamantan-1-ylamide]",51,18,–
"COc1ccc(/C=C2\CCCCc3c(C(=O)N[C@@H]4CCC[C@H]4O)nn(-c4ccc(Cl)cc4Cl)c32)cc1 [Cpd 221, (8E)-1-(2,4-dichloro-phenyl)-8-(4-methoxy-benzylidene)-1,4,5,6,7,8-hexahydro-cycloheptapyrazole-3-carboxylic acid [(1R,2R)-2-hydroxy-cyclopentyl)-amide]",–,–,"inhibition at 0.2 µM (CB2 receptor; test concentration 0.2 μM (footnote 2), read-out: CB2 receptor binding percent inhibition): 24%"

# Reference: patent US8378117B2 (priority 2005, dated 2013)
